Measurements: patent US11684614B2, “Formulations of hydroxypyridonate actinide/lanthanide decorporation agents” (priority 2017, dated 2023)
Values joined by “and” are separate entries in the source; they are usually repeats but may differ in a detail not shown here. Identical values can stand only once.

Experiment: Repeated-treatment efficacy for removing an intravenous dose of 238Pu (excretion, tissue retention, clinical observations), female and male arms;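 for % Recovered Dose - ART: ART is abdominal tissue remainder with GI tract reproductive organs spleen bladder fat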
Type: in vivo, Swiss-Webster mice
Protocol: The objective of this study was to characterize the efficacy of 3,4,3-L1(1,2-HOPO) at enhancing elimination from an internal plutonium burden in female and male Swiss-Webster mice administered a soluble citrate complex of ^238Pu and treated multiple times, starting at 24 hours after the exposure. Efficacy was evaluated by comparing the tissue contents, urinary and fecal excretions of ^238Pu in treated animals versus untreated animals.
The medical countermeasure 3,4,3-L1(1,2-HOPO) was administered parenterally (ip) or orally (po) via consecutive injections or gavages (six daily or twelve twice daily) starting at 24 hours post contamination at the following four selected doses: 30 μmol/kg ip, 150 μmol/kg po, 300 μmol/kg po, and 600 μmol/kg po (equivalent to respective approximate human doses range of […], using the accepted conversion system of mouse doses into human equivalent doses—HED—based on body surface area). Oral doses also included the permeability enhancer selected during formulation development work.
• Challenge isotope: ^238Pu • Challenge dose: 25 nCi (i.e., approximately 0.8 μCi/kg) • Route of contamination: Intravenous (iv) tail-vein • Route of treatment: Intraperitoneal Injection (ip) or Oral (po) • Frequency of treatment: Multiple (once- or twice-daily for 6 days) doses, starting 24 hr postcontamination • Treatment dose calculation: Dose calculations (mg/kg or μmol/kg) for the decorporation agent were based on the individual body weight measured after contamination. • Study Duration: 11 days, in-life
c. […] Test article and control dose formulations were prepared within 1 day of dose administration, by weighing out the appropriate amount of test article, dispersing in vehicle. For ip solutions, the test article was used alone, while for oral suspensions, a mixture of test article and excipient (90:10, w:w) was used. The pH was adjusted to 7.0-7.4 for ip administration and 5.0-5.5 for oral administration with sterile NaOH. Dose formulations were prepared at room temperature and filter-sterilized. • Storage: 2-8° C.; refrigerated; protected from light. • Characterization: The concentration of each test article formulation was verified by high-performance liquid chromatography-mass spectrometry. • Test Article Handling: Test, reference, and control article formulations were handled with the use of eye protection, gloves, and a protective laboratory coat. • Correct Dose Assurance: The test article was weighed with calibrated balances. The administration of each dose formulation was properly documented, and the amount administered to each animal recorded.
e. Experimental Procedures (In-Life Evaluations and Euthanasia) • Contamination: Single administration by intravenous (iv) tail-vein injection (0.2 mL injection volume) under isoflurane anesthesia. Three standard 0.2 mL injections were performed into polyethylene bottles and pre-loaded with aliquots of concentrated nitric acid on each injection day. Six female and six male mice were culled for necropsy 1 hr post-contamination and were used as standards. A11 standards were processed and counted together with the final samples to allow verification of the contamination dose. • Dose Administration: Single administration by intraperitoneal injection (ip) or oral gavage (po) under isoflurane anesthesia. • Mortality/Morbidity: Assessed at least once daily. • Clinical Observations: Recorded once daily (4 hr post-dose on day of treatment), or more often as clinical signs warranted. […]

[1] = female animals, D-7 necropsy, individual animals, listed as 3,4,3-LI(1,2-HOPO)
[2] = female animals, D-11 necropsy, individual animals, listed as 3,4,3-LI(1,2-HOPO)
[3] = male animals, Day 7 necropsy, animal group B, listed as 3,4,3-LI(1,2-HOPO)

O=C(NCCCN(CCCCN(CCCNC(=O)c1cccc(=O)n1O)C(=O)c1cccc(=O)n1O)C(=O)c1cccc(=O)n1O)c1cccc(=O)n1O [3,4,3-L1(1,2-HOPO)]
% Recovered Dose-Female Animals-Urine per Day-Day 11 Necropsy (animal group M, day 11, female mice, listed as 3,4,3-LI(1,2-HOPO)): 0.44% and 0.82% and 0.63% and 0.58% and 0.53% and 1.12% and 0.91% and 0.93%
238Pu excretion path (female and male mice): predominantly through feces
adverse effect (female and male mice, parenteral or oral, all dose levels): No adverse effect
% Recovered Dose - Kidney (female animals, D-7 necropsy, individual animals (ID = group letter + number), dose/regimen of group not given, listed as 3,4,3-LI(1,2-HOPO)): 0.27% (2×) and 0.15% and 0.24% (2×) and 0.17% and 0.31% and 0.14% and 0.09% and 0.28% (2×) and 0.43% and 0.12% and 0.21% and 0.22% (2×)
% Recovered Dose - ART [1]: 1.01% and 1.36% and 1.12% (2×) and 1.30% and 1.21% and 1.29% and 1.37% and 1.20% and 0.98% (2×) and 1.39% and 1.24% (2×) and 1.16% and 1.59%
% Recovered Dose - Combined Body [1]: 34.79% and 38.75% and 40.32% and 37.43% and 36.37% and 39.78% and 31.50% and 26.07% and 36.12% and 35.98% and 41.72% and 33.15% and 35.58% and 25.26% and 33.24% and 36.43%
% Recovered Dose - Combined Excreta [1]: 65.21% and 61.25% and 59.68% and 62.57% and 63.63% and 60.22% and 68.50% and 73.93% and 63.88% and 64.02% and 58.28% and 66.85% and 64.42% and 74.74% and 66.76% and 63.57%
% Recovered Dose - Liver [1]: 8.04% and 11.52% and 14.05% and 17.71% and 5.50% and 9.28% and 7.15% and 5.47% and 15.03% and 5.40% and 15.12% and 5.35% and 15.19% and 6.77% and 11.56% and 16.40%
% Recovered Dose - SKEL [1]: 23.83% and 24.03% and 23.40% and 16.40% and 28.04% and 26.98% and 21.55% and 17.57% and 18.05% and 27.21% and 23.15% and 24.86% and 17.48% and 15.65% and 19.07% and 16.03%
% Recovered Dose - SOFT [1]: 1.63% (2×) and 1.69% and 1.50% and 1.75% and 1.54% and 2.00% and 1.36% and 1.57% and 1.61% and 2.12% and 1.58% and 1.55% and 1.38% and 1.41% and 2.13%
% Recovered Dose - Total Feces [1]: 37.37% and 25.66% and 41.03% and 28.59% and 40.61% and 26.74% and 36.25% and 39.09% and 25.39% and 34.86% and 39.63% and 37.46% and 28.91% and 37.33% and 32.34% and 24.62%
% Recovered Dose - Total Urine [1]: 27.84% and 35.60% and 18.65% (2×) and 33.98% and 23.02% and 33.48% and 32.25% and 34.83% and 38.49% and 29.16% and 29.39% and 35.51% and 37.41% and 34.43% and 38.95%
% Recovered Dose - Combined Body [2]: 17.98% and 75.50% and 20.85% and 19.27% and 21.23% and 20.95% and 24.13% and 19.99% and 25.13% and 24.87% and 27.98% and 26.74% and 30.36% and 31.29% and 29.30% and 29.18% and 27.61% and 23.71% and 21.16% and 25.90% and 28.33% and 29.52% and 30.59% and 27.44%
% Recovered Dose - Combined Excreta [2]: 82.02% and 24.50% and 79.15% and 80.73% and 78.77% and 79.05% and 75.87% and 80.01% and 74.87% and 75.13% and 72.02% and 73.26% and 69.64% and 68.71% and 70.70% and 70.82% and 72.39% and 76.29% and 78.84% and 74.10% and 71.67% and 70.48% and 69.41% and 72.56%
% Recovered Dose - GI Tract [2]: 0.65% and 1.84% and 0.77% and 0.48% and 0.55% and 0.52% and 0.62% and 0.54% and 0.97% and 0.80% (2×) and 1.10% and 0.99% and 0.95% and 1.50% and 0.96% and 0.87% and 0.70% and 0.91% and 0.68% and 0.50% and 1.19% and 0.81% and 1.03%
% Recovered Dose - Kidney [2]: 0.09% and 1.35% and 0.13% (2×) and 0.08% (2×) and 0.18% and 0.14% (4×) and 0.05% and 0.11% (2×) and 0.25% and 0.16% (2×) and 0.26% and 0.12% and 0.20% (2×) and 0.15% and 0.10% (2×)
% Recovered Dose - Liver [2]: 4.74% and 36.77% and 4.16% and 1.79% and 1.96% and 2.48% and 3.25% and 1.16% and 8.54% and 3.78% and 4.98% and 7.97% and 5.01% and 6.46% and 4.53% and 6.86% and 4.50% and 3.03% and 5.22% and 3.96% and 5.73% and 8.43% and 7.92% and 6.01%
% Recovered Dose - Soft Tissue [2]: 1.29% (2×) and 3.31% and 0.99% and 1.94% (2×) and 1.49% and 1.62% and 1.17% and 1.66% and 1.55% and 2.66% and 2.10% and 2.26% and 1.73% and 2.18% and 2.32% and 2.21% and 2.05% and 2.16% and 2.59% and 1.56% and 1.48% and 2.11%
% Recovered Dose - Total Bone [2]: 11.21% and 32.22% and 14.80% and 15.63% and 16.61% and 16.38% and 18.50% and 17.05% and 13.83% and 18.64% and 18.99% and 15.53% and 21.88% and 21.46% and 21.52% and 18.92% and 19.89% and 17.79% and 12.72% and 18.57% and 20.43% and 17.82% and 20.28% and 18.12%
% Recovered Dose - Total Feces [2]: 38.27% and 13.76% and 41.57% and 45.81% and 39.56% and 45.73% and 37.01% and 44.68% and 36.23% and 51.20% and 30.57% and 33.16% and 39.74% and 37.31% and 37.09% and 35.70% and 28.28% and 37.36% and 36.24% and 36.31% and 36.22% and 32.51% and 34.94% and 35.74%
% Recovered Dose - Total Urine [2]: 43.75% and 10.74% and 37.58% and 34.92% and 39.21% and 33.32% and 38.85% and 35.33% and 38.64% and 23.93% and 41.45% and 40.10% and 29.89% and 31.40% and 33.61% and 35.12% and 44.11% and 38.93% and 42.60% and 37.79% and 35.45% and 37.97% and 34.47% and 36.82%
% Recovered Dose - Feces per Day - Day 2 (female animals, Day 7 necropsy, Day 2, listed as 3,4,3-LI(1,2-HOPO)): 13.36% and 8.81% and 9.40%
% Recovered Dose - Feces per Day - Day 3 (female animals, Day 7 necropsy, Day 3, listed as 3,4,3-LI(1,2-HOPO)): 5.58% and 1.92% and 3.39%
% Recovered Dose - Feces per Day - Day 4 (female animals, Day 7 necropsy, Day 4, listed as 3,4,3-LI(1,2-HOPO)): 3.61% and 2.93% and 2.98%
% Recovered Dose - Feces per Day - Day 5 (female animals, Day 7 necropsy, Day 5, listed as 3,4,3-LI(1,2-HOPO)): 2.85% and 2.91% and 2.16%
% Recovered Dose - Feces per Day - Day 6 (female animals, Day 7 necropsy, Day 6, listed as 3,4,3-LI(1,2-HOPO)): 1.63% and 2.50% and 1.90%
% Recovered Dose - Feces per Day - Day 7 (female animals, Day 7 necropsy, Day 7, listed as 3,4,3-LI(1,2-HOPO)): 1.39% and 1.95% and 1.75%
increase in total 238Pu excretion compared to the control groups (female, 6 daily oral treatments, 600 μmol/kg, 11 days post-contamination): up to 143%
tissue content of 238Pu compared to saline control group (female, all analyzed tissues, all dosing regimens): large reductions
full body content of 238Pu compared to saline control groups (female, all treated groups): significant reductions
decrease in body burden compared to the control groups (female, once-daily oral 600 μmol/kg, 11 days post-contamination): up to 45%
decorporation efficacy relative to parenteral DTPA (female, oral once-daily 300 μmol/kg): equivalent to that of parenteral treatment with DTPA
238Pu elimination enhancement (female, oral twice-daily 150 and 300 μmol/kg or once-daily 300 and 600 μmol/kg, 7 days post-contamination): significant
% Recovered Dose Urine per Day, Day 1 [3]: 20.65% and 15.62% and 19.53% and 17.05%
% Recovered Dose Urine per Day, Day 2 [3]: 2.02% and 2.81% and 2.18% and 1.96%
